Results reported in article PMC8699473, “An Easily Expandable Multi-Drug LC-MS Assay for the Simultaneous Quantification of 57 Oral Antitumor Drugs in Human Plasma” (Cancers, 2021).

Assay: Short-term stability in spiked pooled human plasma (bench-top, 4 °C, 56 °C)

SMILES	light sensitivity (acceptance limit <85%)	Short-time stability (1h, 56°C) Accuracy [%] (validation standard 2xLLOV)	Short-time stability (24h, 4°C, without daylight) Accuracy [%] (validation standard 2xLLOV)	Short-time stability (24h, RT, with daylight) Accuracy [%] (validation standard 2xLLOV)	Short-time stability (24h, RT, without daylight) Accuracy [%] (validation standard 2xLLOV)	Short-time stability (1h, 56°C) Accuracy [%] (validation standard LLOV)	Short-time stability (24h, 4°C, without daylight) Accuracy [%] (validation standard LLOV)	Short-time stability (24h, RT, with daylight) Accuracy [%] (validation standard LLOV)	Short-time stability (24h, RT, without daylight) Accuracy [%] (validation standard LLOV)	Short-time stability (1h, 56°C) Accuracy [%] (validation standard MOV)	Short-time stability (24h, 4°C, without daylight) Accuracy [%] (validation standard MOV)	Short-time stability (24h, RT, with daylight) Accuracy [%] (validation standard MOV)	Short-time stability (24h, RT, without daylight) Accuracy [%] (validation standard MOV)	Short-time stability (1h, 56°C) Accuracy [%] (validation standard ULOV)	Short-time stability (24h, 4°C, without daylight) Accuracy [%] (validation standard ULOV)	Short-time stability (24h, RT, with daylight) Accuracy [%] (validation standard ULOV)	Short-time stability (24h, RT, without daylight) Accuracy [%] (validation standard ULOV)
CC(C)(C)c1nc(-c2cccc(NS(=O)(=O)c3c(F)cccc3F)c2F)c(-c2ccnc(N)n2)s1 [Dabrafenib]	no losses of concentrations below the acceptance limit	46.2	99.6	98.0	107.6	42.8	112.7	97.0	108.2	42.4	100.0	97.7	99.3	35.6	94.0	100.2	99.7
COc1cc2ncnc(Nc3ccc(F)c(Cl)c3)c2cc1NC(=O)/C=C/CN1CCCCC1 [Dacomitinib]		30.6	94.9	86.7	88.5	10.3	90.8	74.6	72.7	37.3	97.9	89.8	91.1	33.3	92.4	85.6	89.1
Cc1nc(Nc2ncc(C(=O)Nc3c(C)cccc3Cl)s2)cc(N2CCN(CCO)CC2)n1 [Dasatinib]		47.7	102.2	90.1	98.3	65.9	124.4	90.7	115.9	46.4	100.1	91.7	90.0	38.9	96.7	99.4	93.1
COC(=O)N[C@@H](C)CNc1nccc(-c2cn(C(C)C)nc2-c2cc(Cl)cc(NS(C)(=O)=O)c2F)n1 [Encorafenib]		54.9	106.5	109.5	112.9		110.1	108.1	104.0	54.0	102.1	105.9	109.8	44.5	98.5	108.8	108.3
C#Cc1cccc(Nc2ncnc3cc(OCCOC)c(OCCOC)cc23)c1 [Erlotinib]		61.0	100.7		95.3	69.2	110.4		107.4	52.1	98.0		97.9	45.8	98.7		101.0
COc1cc2ncnc(Nc3ccc(F)c(Cl)c3)c2cc1OCCCN1CCOCC1 [Gefitinib]		46.0	97.4	91.9	92.1	33.3	90.9	83.0	83.7	49.1	103.4	96.2	93.8	42.1	94.9	88.3	87.7
Cc1ccc(NC(=O)c2ccc(CN3CCN(C)CC3)cc2)cc1Nc1nccc(-c2cccnc2)n1 [Imatinib]			105.2	86.0	82.7		81.3	83.7	83.8		102.2	93.6	88.6		94.2	85.6	82.9
